Reference: patent US20120220580A1, “PREPARATION OF CAROTENOID DERIVATIVES AND THEIR APPLICATIONS” (BEIJING GINGKO GROUP BIOLOGICAL TECHNOLOGY CO., LTD., priority 2009, published 2012)
Structures can show the parent of a compound that is named as a salt.

Experiments:
nutritional obesity rats [1] = assay: Body weight of nutritional obesity rats on high-fat feed, intragastric drug for 30 d (Example 17); assay type: in vivo, rat; settings: x ± s; for Body weight(g) (After-experiment) / Body weight(g) increased: Table 1, high-fat feed; for Body weight(g) (After-experiment): after 30 d intragastric administration; for Body weight(g) increased: increase over 30 d of administration; as to Body weight(g) (After-experiment): test concentration or dose not given here; as to Body weight(g) increased: test concentration or dose not given here
Procedure: (§1) Fucoxanthin group and test animal groups were administrated with same doses of the drugs. The basal feed control group continued to be fed with basal feed, other groups with high-fat feed. The basal feed- and model control groups were intragastric administrated with distilled water, the other, drug-administrated groups with respective doses of drug, the administration were carried out uninterruptedly for 30 d. Each group of the animals were bred in different hutches, the room temperature was controlled within (22±2)° C., using natural illumination, the animals took food and drank freely. The body weights of the animals were measured one time each week, feed-intakes of the rats were also observed and recorded. After 30 days the rats were weighed. Statistical analysis: Variance analysis of the data collected in this experiment was implemented by SAS software package, Dunnett's t-test was used for inter-group comparative analysis, p<0.05 was used as the criterion of statistical significance.

nutritional obesity rats [2] = assay: Weight of fat pads around testicles of nutritional obesity rats (Example 18); assay type: in vivo, rat; settings: after 30 d administration, x ± s; for Body weight(g) (After-experiment): Table 2
Procedure: as §1, with “significance. Experimental procedures were the same as in Example 17. […] Statistical analysis was the same as in Example 16.” for “significance.”

nutritional obesity rats [3] = assay: Weight of abdomen fat of nutritional obesity rats (Example 20); assay type: in vivo, rat; settings: after 30 d administration, x ± s; for Body weight(g) (After-experiment): Table 4
Procedure: as §1, with “significance. Experimental procedures were the same as in Example 17. […] Statistical analysis was the same as in Example 16.” for “significance.”

[4] = test system: nutritional obesity model rats; assay: Weight of fat pads around kidneys of nutritional obesity model rats (Example 19); assay type: in vivo, rat; settings: after 30 d administration, x ± s; for Body weight(g) (After-experiment): Table 3
Procedure: as §1, with “significance. Experimental procedures were the same as in Example 17. […] Statistical analysis was the same as in Example 16.” for “significance.”

lab mice = settings: fucoxanthin as an additive in condensed food, experimental animals; cited from earlier work; also: test concentration or dose not given here

Row | Compound | Body weight(g) (After-experiment) (nutritional obesity rats [1]) | Body weight(g) increased (nutritional obesity rats [1]) | Body weight(g) (After-experiment) (nutritional obesity rats [2]) | Weight fat pads around testicles(g) (nutritional obesity rats [2]) | Weight fat pads around testicles/bw × 100 (nutritional obesity rats [2]) | Body weight(g) (After-experiment) (nutritional obesity rats [3]) | Weight abdomen fat/bw × 100 (nutritional obesity rats [3]) | Weight. abdomenfat (g) (nutritional obesity rats [3]) | Body weight(g) (After-experiment) [4] | Weight fat pads around kidneys(g) [4] | Weight fat pads around kidneys/bw × 100 [4] | also measured
1 | CC(=O)OC1CC(C)(C)C(=C=C/C(C)=C/C=C/C(C)=C/C=C/C=C(C)/C=C/C=C(\C)C(=O)CC23OC2(C)CC(OC(=O)CC(O)(CC(=O)O)C(=O)O)CC3(C)C)[C@](C)(O)C1 (stereo partly drawn) [compound 1, fucoxanthin citrate] | 515.00 ± 29.21ΔΔ g | 28.50 ± 1.15ΔΔ g | – | – | – | – | – | – | – | – | – | –
2 | CC(=O)OC1CC(C)(C)C(=C=C/C(C)=C/C=C/C(C)=C/C=C/C=C(C)/C=C/C=C(\C)C(=O)CC23OC2(C)CC(OC(=O)CCC(=O)O)CC3(C)C)[C@@](C)(O)C1 (stereo partly drawn) [compound 2, fucoxanthin succinate] | – | – | 512.1 ± 21.00 g | 6.00 ± 0.11ΔΔ g | 1.18 ± 0.13ΔΔ | 516.03 ± 12.15 g | 1.31 ± 0.12ΔΔ | 6.76 ± 0.22ΔΔ g | – | – | – | –
3 | CC(=O)OC1CC(C)(C)C(=C=C/C(C)=C/C=C/C(C)=C/C=C/C=C(C)/C=C/C=C(\C)C(=O)CC23OC2(C)CC(OC(=O)CCC(=O)O)CC3(C)C)[C@@](C)(O)C1 (stereo partly drawn) [compound 3, fucoxanthin succinate sodium salt] | – | – | – | – | – | – | – | – | – | – | – | Body weight(g) (After-experiment) (nutritional obesity rats [2]; succinate sodium salt): 513.1 ± 19.13 g; Weight fat pads around testicles(g) (nutritional obesity rats [2]; succinate sodium salt): 7.00 ± 0.13ΔΔ g; Weight fat pads around testicles/bw × 100 (nutritional obesity rats [2]; succinate sodium salt): 1.20 ± 0.10ΔΔ
4 | CC(=O)OC1CC(C)(C)C(=C=C/C=C/C=C/C(C)=C/C=C/C=C(C)/C=C/C=C(\C)C(=O)CC23OC2(C)CC(OC(=O)CCC(=O)OC[C@H](O)[C@H]2OC(=O)C(O)=C2O)CC3(C)C)[C@@](C)(O)C1 (stereo partly drawn) [compound 4, fucoxanthin succinate-4-vitamin C ester] | 514.00 ± 30.22ΔΔ g | 27.41 ± 1.21ΔΔ g | 514.00 ± 30.22 g | 4.00 ± 0.14ΔΔ g | 0.70 ± 0.21ΔΔ | 514.00 ± 30.22 g | 0.80 ± 0.11ΔΔ | 4.11 ± 0.14ΔΔ g | – | – | – | –
5 | CC(=O)OC1CC(C)(C)C(=C=C/C(C)=C/C=C/C(C)=C/C=C/C=C(C)/C=C/C=C(\C)C(=O)CC23OC2(C)CC(OC(=O)CC(O)(CC(=O)OC[C@H](O)[C@H]2OC(=O)C(O)=C2O)C(=O)O)CC3(C)C)[C@](C)(O)C1 (stereo partly drawn) [compound 7, fucoxanthincitrate5-vitamin C ester] | 506.00 ± 19.07ΔΔ g | 18.21 ± 1.12ΔΔ g | – | – | – | – | – | – | – | – | – | –
6 | CC(=O)OC1CC(C)(C)C(=C=C/C(C)=C/C=C/C(C)=C/C=C/C=C(C)/C=C/C=C(\C)C(=O)CC23OC2(C)CC(OC(=O)/C=C(/CC(=O)O)C(=O)O)CC3(C)C)[C@](C)(O)C1 (stereo partly drawn) [compound 8, fucoxanthin aconitate] | – | – | – | – | – | – | – | – | 518.18 ± 15.21 g | 4.40 ± 0.34ΔΔ g | 0.85 ± 0.12ΔΔ | –
7 | CC(=O)OC1CC(C)(C)C(=C=C/C(C)=C/C=C/C(C)=C/C=C/C=C(C)/C=C/C=C(\C)C(=O)CC23OC2(C)CC(OC(=O)CCCN(C)C)CC3(C)C)[C@](C)(O)C1 (stereo partly drawn) [compound 9, fucoxanthin di-methylaminobutyrate] | – | – | – | – | – | – | – | – | 514.13 ± 13.00 g | 5.00 ± 0.23ΔΔ g | 0.98 ± 0.11ΔΔ | –
8 | CC(=O)OC1CC(C)(C)C(=C=C/C(C)=C/C=C/C(C)=C/C=C/C=C(C)/C=C/C=C(\C)C(=O)CC23OC2(C)CC(OC(=O)CNC(=O)C(CS)NC(=O)CCC(N)C(=O)O)CC3(C)C)[C@](C)(O)C1 (stereo partly drawn) [compound 10, fucoxanthin glutathione ester] | – | – | – | – | – | 517.00 ± 11.23 g | 1.50 ± 0.14ΔΔ | 7.75 ± 0.20ΔΔ g | 522.08 ± 18.11 g | 4.00 ± 0.40ΔΔ g | 0.75 ± 0.11ΔΔ | –
9 | CC(=O)OC1CC(C)(C)C(=C=C/C(C)=C/C=C/C(C)=C/C=C/C=C(C)/C=C/C=C(\C)C(=O)CC23OC2(C)CC(OC(=O)[C@@H](O)[C@H](O)C(=O)O)CC3(C)C)[C@](C)(O)C1 (stereo partly drawn) [compound 11, fucoxanthin tartrate] | 515.00 ± 18.90ΔΔ g | 29.25 ± 1.23ΔΔ g | – | – | – | 515.00 ± 18.90 g | 1.40 ± 0.13ΔΔ | 7.21 ± 0.23ΔΔ g | – | – | – | –
10 | C\C(C=C=C1C(C)(C)CC(OC(=O)N2CCOCC2)C[C@@]1(C)O)=C/C=C/C(C)=C/C=C/C=C(C)/C=C/C=C(\C)C(=O)CC12OC1(C)CC(OC(=O)N1CCOCC1)CC2(C)C (stereo partly drawn) [compound 12, fucoxanthol bi-morpholino carbamate] | 500.01 ± 20.10ΔΔ g | 12.12 ± 1.25ΔΔ g | – | – | – | – | – | – | – | – | – | –
11 | CC(=O)OC1CC(C)(C)C(=C=C/C(C)=C/C=C/C(C)=C/C=C/C=C(C)/C=C/C=C(\C)C(=O)CC23OC2(C)CC(OC(=O)CCC(=O)Oc2ccc(/C=C/c4cc(O)cc(O)c4)cc2)CC3(C)C)[C@@](C)(O)C1 (stereo partly drawn) [compound 14, fucoxanthin resveratrol succinate] | 514.00 ± 22.22ΔΔ g | 28.52 ± 1.21ΔΔ g | 514.00 ± 22.22 g | 5.00 ± 0.12ΔΔ g | 0.90 ± 0.12ΔΔ | – | – | – | – | – | – | –
12 | CCCCC/C=C\C/C=C\CCCCCCCC(=O)OC1CC(C)(C)C2(CC(=O)/C(C)=C/C=C/C(C)=C/C=C/C=C(C)/C=C/C=C(\C)C=C=C3C(C)(C)CC(OC(C)=O)C[C@@]3(C)O)OC2(C)C1 (stereo partly drawn) [compound 15, fucoxanthin linoleate] | – | – | 520.01 ± 16.88 g | 6.34 ± 0.55ΔΔ g | 1.22 ± 0.11ΔΔ | – | – | – | – | – | – | –
13 | CC(=O)OC1CC(C)(C)C(=C=C/C(C)=C/C=C/C(C)=C/C=C/C=C(C)/C=C/C=C(\C)C(=O)CC23OC2(C)CC(O)CC3(C)C)[C@](C)(O)C1 (stereo partly drawn) [fucoxanthin, 3′-(Acetyloxy)-6′,7′-didehydro-5,6-epoxy-5,5′,6,6′,7,8-hexahydro-3,5′-dihydroxy-8-oxo-β,β-carotene, reference compound] | 531.00 ± 20.32Δ g | 43.68 ± 19.13Δ g | 531.00 ± 20.32 g | 7.32 ± 0.83Δ g | 1.38 ± 0.11Δ | 531.00 ± 20.32 g | 1.81 ± 0.13Δ | 9.61 ± 0.12ΔΔ g | 531.00 ± 20.32 g | 7.42 ± 0.60Δ g | 1.42 ± 0.12Δ | addiction or other side effects (lab mice): would not induce the addiction of the experimental animals, or had any other side effects
14 | fucoxanthin citrate sodium salt [compound 6] | 507.00 ± 20.11ΔΔ g | 20.32 ± 1.21ΔΔ g | – | – | – | – | – | – | – | – | – | Body weight(g) (before-experiment) (nutritional obesity rats [1]; SD male rats, after 1 month high-fat feed, before drug administration (baseline), 10 rats per group): 485.89 ± 18.99 g
15 | fucoxanthin succinate 4-vitamin Cester sodium salt [compound 5] | – | – | – | – | – | 504.01 ± 18.23 g | 0.71 ± 0.10ΔΔ | 3.58 ± 0.21ΔΔ g | 513.15 ± 11.00 g | 7.00 ± 0.32ΔΔ g | 1.12 ± 0.10ΔΔ | –
